The record followed here is patent US5034548A, “Steroid derivatives useful as hypocholesterolemics” (E. I. Du Pont de Nemours and Company, priority 1990, dated 1991).

Some results are limits rather than exact numbers.

Assay [1] deals with cholesterol synthesis in CHO cells. Nature of the assay: De novo cholesterol synthesis: incorporation of radiolabeled acetate into cholesterol in CHO cells. The settings on record: for Cholesterol Synthesis (DPMs): 17 hr + 2 hr with [14C]-acetic acid, Control 38855. The assay is classed as cell-based, Chinese Hamster. As for the experimental part:
The ability of the compounds of Formula I to decrease de novo cholesterol synthesis was tested by measuring the incorporation of radiolabeled acetate into cholesterol synthesized in CHO cells. To conduct this experiment, CHO cells were plated at 0.3×10^6 cells per 15×60 mm tissue culture dish in 5 mL of McCoy's modified medium (Gibco Laboratories) containing 1% Cab-O-Sil delipidated FBS and incubated for 48 hours at 37° in a 5% CO2, 95% air environment. Test compounds in a 2.5% suspension of BSA (fatty acid free) in ethanol were then added to the cultures such that the final ethanol and BSA concentrations were 0.5% and […], respectively. Control cultures received ethanol and BSA alone. The cultures containing test compounds were then incubated at 37° in a 5% Co, 95% air environment for 17 hr before the addition of [1,2-^14 C]-acetic acid (57 μCi/mmol); obtained from New England Nuclear, Boston, Mass.) at a concentration of 10 μCi/mL for 2 additional hr.
The cells were harvested by washing the cells twice with 5 mL of cold PBS and scraping the cells into 1 mL PBS. The cell-containing solution was then transferred to 15 mL extraction tubes and treated with 1 mL of 90% methanol (containing 15% KOH, 100 μg/mL butylated hydroxytoluene). All samples were saponified for 1 hr at 80° and the non-saponifiable lipids then extracted with petroleum ether. The petroleum ether fractions were dried under nitrogen, resuspended in ethanol, counted and analyzed by reverse phase HPLC at 45° using an Ultrashpere Octyl column (from Altex Scientific Inc., Berkeley, Calif.) with a mobile phase of acetonitrile:methanol:water (44:44:12). The amount of cholesterol synthesis is measured by the amount of radiolabeled acetate incorporated into the cholesterol peak. The percent of cholesterol synthesis in the treated culture is calculated based upon the control culture.

Assay [2] relates to 3-Hydroxy-3-Methylglutaryl Coenzyme A Reductase (HMGR). Nature of the assay: HMGR Suppression Assay in digitonin-permeabilized CHO cells. The assay is classed as cell-based, Chinese Hamster. The settings on record: for IC50: 6 hr incubation at 37°, amount to suppress HMGR activity by 50% relative to controls; for effect on measured HMGR activity: tested under these same conditions. As for the experimental part: The ability of the compounds of Formula I to suppress the activity of HMGR, the rate limiting enzyme of cholesterol biosynthesis, was tested as follows. Chinese Hamster Ovary (CHO) cells were divided twice weekly and were maintained in McCoy's 5A medium supplemented with 1% Cab-O-Sil delipidated Fetal Bovine Serum (FBS) (obtained from Gibco Laboratories, Chagrin Falls, Ohio). Cells were harvested during the logarithmic phase of growth and cell cultures were prepared by adding 0.5×10^6 cells to wash well in a 24 well cluster dish (obtained from Costar, Data Packaging Corp., Cambridge, Mass.) employing 1 mL of the above medium per each well. […] Control cells were treated in an identical fashion to those which received test compound, except they were incubated with the BSA and ethanol suspension only.
Specifically, the medium in each well was aspirated and the cells rinsed with a 50 mM solution of phosphate buffered saline (PBS). One mL of 30 μg/mL of digitonin in CSK buffer (prepared using 10 mM Pipes [piperazine-N,N'-bis(2-ethansulfonic)acid'], 100 mM KCl, 2.5 mM MgCl2, 300 mM sucrose, 1 mM EGTA, pH 6.8) was added to each well and incubated for 10 min at 22° to permeabilize the cells. The buffer was carefully aspirated and the wells were rinsed twice each time with 1 mL of PBS. HMGR activity was measured directly by adding 75 μL of PIB buffer (50 mM potassium phosphate, 1 mM Na2 EDTA, 10 mM dithiothreitol, pH 7.4) to each well and incubating the cells for 30 minutes at 37° as described above. […] HMG-Coenzyme A (15 DPM/pmol), pH 7.4. The assay mixture was incubated for 30 min at 37° and terminated by the addition of 70 μL of [^3 H]-mevalonic acid (35,000 DPM/assay), 0.15 mg/mL in 3 N HCl. The reaction was left to lactonize for an additional 30 min at 37° or overnight at room temperature.
Reaction products were separated by thin layer chromatography on silica gel G (obtained from Analtech, Newark, Del.) developed in an unsaturated environment with acetone:benzene (3:2, v:v). The band corresponding to mevalonolactone was identified by exposure to iodine vapor and was scraped into counting vials. The extent of conversion of starting substrate, HMG-CoA, to mevalonic acid was determined by liquid scintillation counting in Biofluor (obtained from New England Nuclear, Boston, Mass). Corrections for recovery and blank values were made for each sample. Protein determinations were made by the Bio-rad (Bio-Rad, Richmond, Cal.) dye binding assay according to the manufacturer's instruction using bovine serum albumin as standard. Cellular protein was solubilized from culture dishes by the addition of 20 μL of 16 N KOH and assayed directly for protein amount. Suppression values are expressed as the amount of compound required to suppress HMGR activity by 50% relative to that of the controls.

The target in assay [3] is T1, Lanosta-8,24-dien-3β-ol 14α-methyl demethylase (Rattus norvegicus, UniProt Q64654).
T1 construct: determined in rat depatic microsomal preparations; from tissue; host or cells: rat hepatic microsomes
T1 sequence (Q64654 1-503): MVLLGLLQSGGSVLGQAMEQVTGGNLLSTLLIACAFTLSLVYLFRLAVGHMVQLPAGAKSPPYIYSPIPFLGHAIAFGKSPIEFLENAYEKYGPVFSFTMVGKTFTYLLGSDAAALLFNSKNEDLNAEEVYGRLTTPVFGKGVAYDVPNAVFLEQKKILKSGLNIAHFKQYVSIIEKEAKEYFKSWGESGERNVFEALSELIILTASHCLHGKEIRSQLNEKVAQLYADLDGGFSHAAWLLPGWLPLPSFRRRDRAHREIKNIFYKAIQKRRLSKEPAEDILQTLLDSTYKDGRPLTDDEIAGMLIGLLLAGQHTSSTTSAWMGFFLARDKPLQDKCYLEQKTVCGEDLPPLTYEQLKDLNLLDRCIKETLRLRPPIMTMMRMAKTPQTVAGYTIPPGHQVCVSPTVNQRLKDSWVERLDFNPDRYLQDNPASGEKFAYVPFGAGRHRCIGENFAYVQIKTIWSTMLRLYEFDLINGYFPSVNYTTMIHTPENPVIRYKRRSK
Nature of the assay: Lanosta-8,24-dien-3β-ol 14α-Methyl Demethylase Inhibition Assay. The assay is classed as biochemical. The settings on record: for IC50: rat hepatic microsomal preparations, 100 μM lanost-8-en-3β-ol substrate, pH not given, test compounds 0 to 100 μM; for effect on lanosta-8,24-dien-3β-ol 14α-methyl demethylase activity: rat microsomal preparations. As for the experimental part:
Lanosta-8,24-dien-3β-ol 14α-methyl demethylase activity was determined in rat depatic microsomal preparations as described in Trzaskos et al., J. Biol. Chem., 261, 16937-16942 (1986). Specifically, test compounds were added to assay mixtures as detergent suspensions with substrate employing 5 mg Triton WR-1339, 100 μM lanost-8-en-3β-ol substrate, and test compounds ranging from 0 to 100 μM. The inhibitor/substrate/detergent suspension was incubated with 2 mg microsomal protein for 5 min at 37° followed by a 10 min incubation initiated by the addition of cofactors required for the reaction. […] Inhibition values are expressed as the amount of compound required to inhibit lanosta-8,24-dien-3β-ol 14α-methyldemethylase activity by 50% relative to that of the controls.

Where [4] appears, read: Cricetulus griseus, 19 h, 10 μM, percent of control culture (100).

Take `C=CC(O)[C@@]12CC[C@H]([C@H](C)CCCC(C)C)[C@@]1(C)CCC1=C2CC[C@H]2C(C)(C)[C@@H](O)CC[C@]12C` (single isomer, unassigned) [Compound 11a, 4,4-dimethyl-14α-(1'-hydroxy-2'-propenyl)-5α-cholest-8-en-3β-ol]: the “Cholesterol Synthesis (DPMs)” value in assay [1] (1 μM) came out at 360 DPMs. Further, the concentration for half-maximal inhibition (IC50) in assay [2] turned out to be 60 nM.

As for `C=CC(O)[C@@]12CC[C@H]([C@H](C)CCCC(C)C)[C@@]1(C)CCC1=C2CC[C@H]2C(C)(C)[C@@H](O)CC[C@]12C` (single isomer, unassigned) [Compound 12a, 4,4-dimethyl-14α-(1'-hydroxy-2'-propenyl)-5α-cholest-8-en-3β-ol], the “Cholesterol Synthesis (DPMs)” value in assay [1] (1 μM) came out at 636 DPMs. In addition, in assay [1] (Cricetulus griseus, 19 h, 1 μM, percent of control culture (100)), the activity at 1 µM was 2%. The figures for the IC50 in assay [3] and in assay [2] were 3200 nM and 130 nM, respectively.

With `CC(C)=CCC[C@@H](C)[C@H]1CC[C@@]2(C)C3=C(CC[C@]12C)[C@@]1(C)CC[C@H](O)C(C)(C)[C@@H]1CC3` [Compound 1, lanosta-8,24-dien-3β-ol, reference compound], in assay [3], the “effect on lanosta-8,24-dien-3β-ol 14α-methyl demethylase activity” value is reported as “clearly served as substrates”. The “effect on measured HMGR activity” value in assay [2] was “without effect”.

In the case of `CC(C)CCC[C@@H](C)[C@H]1CC[C@@]2(C(F)F)C3=C(CC[C@]12C)[C@@]1(C)CC[C@H](O)C(C)(C)[C@@H]1CC3` [Compound 9a, 32,32-difluoro-lanost-8-en-3β-ol], the “Cholesterol Synthesis (DPMs)” value in assay [1] (10 μM) is listed as 3615 DPMs. For the same molecule, the activity at 10 µM in assay [1] (setting [4]) came to 9%. Besides, the IC50 in assay [3] was 16000 nM; in assay [2], 1300 nM.

Consider `CC(C)CCC[C@@H](C)[C@H]1CC[C@@]2(C(F)F)C3=CC[C@H]4C(C)(C)[C@@H](O)CC[C@]4(C)[C@H]3CC[C@]12C` [Compound 9b, 32,32-difluoro-lanost-7-en-3β-ol], for which, in assay [1] (10 μM), the “Cholesterol Synthesis (DPMs)” value amounted to 10125 DPMs. This molecule also had an activity at 10 µM in assay [1] (setting [4]) of 26%. Besides, the values for the half-maximal inhibitory concentration (IC50) in assay [3] and in assay [2] were 37000 nM and 1400 nM, respectively.

Consider `CC(C)CCC[C@@H](C)[C@H]1CC[C@@]2(C=NO)C3=C(CC[C@]12C)[C@@]1(C)CC[C@H](O)C(C)(C)[C@@H]1CC3` [Compound 15a, lanost-8-en-32-aldoxime-3β-ol], for which the concentration for half-maximal inhibition (IC50) in assay [3] is 1100 nM; in assay [2], 40 nM.

Take `CC(C)CCC[C@@H](C)[C@H]1CC[C@@]2(C#N)C3=C(CC[C@]12C)[C@@]1(C)CC[C@H](O)C(C)(C)[C@@H]1CC3` [Compound 17a, 14α-cyano-4,4-dimethyl-5α-cholest-8-en-3β-ol]: the figures for the IC50 in assay [3] and in assay [2] were 11000 nM and 1400 nM, respectively.

As to `CC(C)CCC[C@@H](C)[C@H]1C[C@H](F)[C@@]2(C)C3=CC[C@H]4C[C@@H](O)CC[C@]4(C)[C@H]3CC[C@]12C` [Compound 27b, 15α-fluoro-14α-methyl-5α-cholest-7-en-3β-ol], the IC50 was greater than 100000 nM in assay [3] and 500 nM in assay [2].

On to `CC(C)CCC[C@@H](C)[C@H]1C[C@H](O)[C@@]2(O)C3=C(CC[C@]12C)[C@@]1(C)CC[C@H](O)C[C@@H]1CC3` [Compound 35a, 5α-cholest-8-en-3β,14α,15α-triol], for which the IC50 in assay [3] is greater than 100000 nM; in assay [2] it was 400 nM.

Take `CC(C)CCC[C@@H](C)[C@H]1CC[C@H]2[C@@H]3CC=C4C[C@@H](O)CC[C@]4(C)[C@H]3CC[C@]12C` [cholesterol]: the “effect on lanosta-8,24-dien-3β-ol 14α-methyl demethylase activity” value in assay [3] is recorded as “without effect”. Further, in assay [2], the “effect on measured HMGR activity” value is reported as “without effect”.

With `CC(C)CCC[C@@H](C)[C@H]1CC[C@@]2(C)C3=C(CC[C@]12C)[C@@]1(C)CC[C@H](O)C(C)(C)[C@@H]1CC3` [lanost-8-en-3β-ol, reference compound], in assay [3], the “effect on lanosta-8,24-dien-3β-ol 14α-methyl demethylase activity” value is recorded as “clearly served as substrates”. In addition, the “effect on measured HMGR activity” value in assay [2] was “without effect”.
